From ChEMBL document CHEMBL1153866, “Design, synthesis and evaluation of galanthamine derivatives as acetylcholinesterase inhibitors” (Eur J Med Chem, 2009) come the findings set out here.

For the first experiment, the target named is Butyrylcholinesterase (Rattus norvegicus, UniProt Q9JKC1). As to the kind of experiment: Inhibition of BChE from rat serum by Ellmans method. The format is cell-free.
Chain of Butyrylcholinesterase (Q9JKC1 whole entry): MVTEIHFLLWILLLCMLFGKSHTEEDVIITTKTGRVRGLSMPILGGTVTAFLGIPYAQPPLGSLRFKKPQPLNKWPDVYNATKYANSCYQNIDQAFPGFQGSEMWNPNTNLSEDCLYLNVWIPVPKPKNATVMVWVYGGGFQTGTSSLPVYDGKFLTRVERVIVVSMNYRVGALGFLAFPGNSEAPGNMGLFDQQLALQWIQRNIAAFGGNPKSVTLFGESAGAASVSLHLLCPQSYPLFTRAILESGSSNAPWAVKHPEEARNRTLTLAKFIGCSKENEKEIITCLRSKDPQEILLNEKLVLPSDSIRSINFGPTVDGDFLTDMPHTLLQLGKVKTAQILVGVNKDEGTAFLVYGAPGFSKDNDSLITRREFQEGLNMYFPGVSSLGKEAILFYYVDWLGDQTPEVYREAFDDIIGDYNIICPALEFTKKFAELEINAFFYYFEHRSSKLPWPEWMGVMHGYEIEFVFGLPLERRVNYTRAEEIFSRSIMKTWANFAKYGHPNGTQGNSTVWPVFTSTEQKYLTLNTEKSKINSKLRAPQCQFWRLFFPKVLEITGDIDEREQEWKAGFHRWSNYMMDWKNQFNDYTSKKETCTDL
`COc1ccc2c3c1O[C@H]1C[C@@H](O)C=C[C@@]31CCN(CCCCCCOc1cccc(C(C)N3CCOCC3)c1)C2` (some centres not stated) had an IC50 of 5.8 µM.
The same measure, in the same setting: the same measure for `COc1ccc2c3c1O[C@H]1C[C@@H](O)C=C[C@@]31CCN(CCCCCCCCCOc1ccc(CN3CCCCC3)cc1)C2`: 64 µM; for `COc1ccc2c3c1O[C@H]1C[C@@H](O)C=C[C@@]31CCN(CCCCCCCCCCCCOc1ccc(CN3CCCCC3)cc1)C2`: 1.2 µM; for `COc1ccc2c3c1O[C@H]1C[C@@H](O)C=C[C@@]31CCN(CCCCCCOc1ccc(CN3CCCCC3)cc1)C2`: 33 µM.
The same measure, in the same setting: the same measure for `COc1ccc2c3c1O[C@H]1C[C@@H](O)C=C[C@@]31CCN(CCCCOc1cccc(C(C)N3CCOCC3)c1)C2` (some centres not stated): 7.1 µM; for `COc1ccc2c3c1O[C@H]1C[C@@H](O)C=C[C@@]31CCN(CCCCOc1ccc(C(=O)N3CCCC3)cc1)C2`: 5.6 µM.
In turn, `COc1ccc2c3c1O[C@H]1C[C@@H](O)C=C[C@@]31CCN(CCCCOC1CCN(Cc3ccccc3)CC1)C2` displayed an IC50 of 4.3 µM.
`COc1ccc2c3c1O[C@H]1C[C@@H](O)C=C[C@@]31CCN(CCCCCOc1ccc(CN3CCCCC3)cc1)C2` showed a half-maximal inhibitory concentration (IC50) of 29 µM.
`COc1ccc2c3c1O[C@H]1C[C@@H](O)C=C[C@@]31CCN(CCCCOc1ccc(CN3CCCCC3)cc1)C2` returned an IC50 of 28 µM.
The compound `CCN(CC)Cc1ccc(OCCCCCCN2CC[C@@]34C=C[C@H](O)C[C@@H]3Oc3c(OC)ccc(c34)C2)cc1` showed an IC50 of 41 µM.
The same measure, in the same setting: in the case of `COc1ccc2c3c1O[C@H]1C[C@@H](O)C=C[C@@]31CCN(CCCCCCCCOc1ccc(CN3CCCCC3)cc1)C2` it was 53 µM; in that of `COc1ccc2c3c1O[C@H]1C[C@@H](O)C=C[C@@]31CCN(CCCOc1ccc(CN3CCCCC3)cc1)C2`, 24 µM; in that of `COc1ccc2c3c1O[C@H]1C[C@@H](O)C=C[C@@]31CCN(CCCCCCCCCCOc1ccc(CN3CCCCC3)cc1)C2`, 93 µM.
For the compound `COc1ccc2c3c1O[C@H]1C[C@@H](O)C=C[C@@]31CCN(CCCCCCOc1ccc(C(=O)N3CCCC3)cc1)C2`, the concentration for half-maximal inhibition (IC50) came out at 9.4 µM.
`COc1ccc2c3c1O[C@H]1C[C@@H](O)C=C[C@@]31CCN(CCCCCCOC1CCN(Cc3ccccc3)CC1)C2` displayed an IC50 of 5.5 µM.
Consider `COc1ccc2c3c1O[C@H]1C[C@@H](O)C=C[C@@]31CCN(CCCCCCOc1ccc(CN3CCOCC3)cc1)C2`, for which the 50% inhibitory concentration (IC50) was found to be 3.9 µM. This IC50 and that of the compound before are within 1.5-fold of each other.
Compound `CCN(CC)Cc1ccc(OCCCCN2CC[C@@]34C=C[C@H](O)C[C@@H]3Oc3c(OC)ccc(c34)C2)cc1` gave a half-maximal inhibitory concentration (IC50) of 34 µM.
`COc1ccc2c3c1O[C@H]1C[C@@H](O)C=C[C@@]31CCN(CCCCOc1ccc(CN3CCOCC3)cc1)C2`: the IC50 was determined as 3.3 µM.
For the compound `COc1ccc2c3c1O[C@H]1C[C@@H](O)C=C[C@@]31CCN(CCOc1ccc(CN3CCCCC3)cc1)C2`, half-maximal inhibition (IC50) required 21 µM.

In another experiment the target is T1, Acetylcholinesterase (Rattus norvegicus, UniProt P37136).
T1 sequence (P37136 whole entry): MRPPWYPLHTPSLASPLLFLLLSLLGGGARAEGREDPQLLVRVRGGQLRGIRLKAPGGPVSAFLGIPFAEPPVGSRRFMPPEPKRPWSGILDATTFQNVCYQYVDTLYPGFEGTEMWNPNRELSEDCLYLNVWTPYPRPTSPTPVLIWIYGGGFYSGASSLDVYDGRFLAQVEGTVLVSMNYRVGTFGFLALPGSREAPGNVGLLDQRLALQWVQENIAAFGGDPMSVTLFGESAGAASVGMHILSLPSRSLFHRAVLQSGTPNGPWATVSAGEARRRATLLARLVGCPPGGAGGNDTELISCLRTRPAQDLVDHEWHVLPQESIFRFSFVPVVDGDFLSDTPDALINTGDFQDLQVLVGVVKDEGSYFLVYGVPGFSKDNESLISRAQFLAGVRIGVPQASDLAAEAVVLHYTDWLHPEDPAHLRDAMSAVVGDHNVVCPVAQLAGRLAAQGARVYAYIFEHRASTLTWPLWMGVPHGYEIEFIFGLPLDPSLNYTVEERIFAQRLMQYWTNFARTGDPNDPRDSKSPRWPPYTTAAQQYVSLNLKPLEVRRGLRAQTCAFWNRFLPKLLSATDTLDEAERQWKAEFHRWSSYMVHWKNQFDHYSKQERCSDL
The experiment is described as follows: Inhibition of AChE from rat cortex homogenate by Ellmans method.
The compound `COc1ccc2c3c1O[C@H]1C[C@@H](O)C=C[C@@]31CCN(CCCCCCOc1cccc(C(C)N3CCOCC3)c1)C2` (some centres not stated) returned an IC50 of 0.154 µM.
Same read-out and setting: in the case of `COc1ccc2c3c1O[C@H]1C[C@@H](O)C=C[C@@]31CCN(CCCCCCCCCOc1ccc(CN3CCCCC3)cc1)C2` it was 0.0881 µM.
On to `COc1ccc2c3c1O[C@H]1C[C@@H](O)C=C[C@@]31CCN(CCCCCCCCCCCCOc1ccc(CN3CCCCC3)cc1)C2`, for which it took 0.0581 µM to reach half-maximal inhibition (IC50).
The compound `COc1ccc2c3c1O[C@H]1C[C@@H](O)C=C[C@@]31CCN(CCCCCCOc1ccc(CN3CCCCC3)cc1)C2` registered a half-maximal inhibitory concentration (IC50) of 0.00562 µM.
Same read-out and setting: in the case of `COc1ccc2c3c1O[C@H]1C[C@@H](O)C=C[C@@]31CCN(CCCCOc1cccc(C(C)N3CCOCC3)c1)C2` (some centres not stated) it was 0.0941 µM; in that of `COc1ccc2c3c1O[C@H]1C[C@@H](O)C=C[C@@]31CCN(CCCCOc1ccc(C(=O)N3CCCC3)cc1)C2`, 0.0538 µM.
`COc1ccc2c3c1O[C@H]1C[C@@H](O)C=C[C@@]31CCN(CCCCOC1CCN(Cc3ccccc3)CC1)C2` had an IC50 of 0.306 µM.
Compound `COc1ccc2c3c1O[C@H]1C[C@@H](O)C=C[C@@]31CCN(CCCCOc1ccc(CN3CCCCC3)cc1)C2` returned an IC50 of 0.0124 µM.
The same measure, in the same setting: in the case of `CCN(CC)Cc1ccc(OCCCCCCN2CC[C@@]34C=C[C@H](O)C[C@@H]3Oc3c(OC)ccc(c34)C2)cc1` it was 0.00886 µM.
For the compound `COc1ccc2c3c1O[C@H]1C[C@@H](O)C=C[C@@]31CCN(CCCCCCCCOc1ccc(CN3CCCCC3)cc1)C2`, the IC50 was determined as 0.0347 µM.
Turning to `COc1ccc2c3c1O[C@H]1C[C@@H](O)C=C[C@@]31CCN(CCCOc1ccc(CN3CCCCC3)cc1)C2`, the concentration for half-maximal inhibition (IC50) worked out at 0.018 µM. This IC50 lies about 1.9-fold lower than the previous one.
With `COc1ccc2c3c1O[C@H]1C[C@@H](O)C=C[C@@]31CCN(CCCCCCCCCCOc1ccc(CN3CCCCC3)cc1)C2`, the IC50 turned out to be 0.0612 µM.
Regarding `COc1ccc2c3c1O[C@H]1C[C@@H](O)C=C[C@@]31CCN(CCCCCCOc1ccc(C(=O)N3CCCC3)cc1)C2`, the IC50 was 0.122 µM.
On to `COc1ccc2c3c1O[C@H]1C[C@@H](O)C=C[C@@]31CCN(CCCCCCOC1CCN(Cc3ccccc3)CC1)C2`, for which the IC50 came out at 0.222 µM.
In the case of `COc1ccc2c3c1O[C@H]1C[C@@H](O)C=C[C@@]31CCN(CCCCCCOc1ccc(CN3CCOCC3)cc1)C2`, it took 0.113 µM to reach half-maximal inhibition (IC50).
Still for that read-out and setting: in the case of `CCN(CC)Cc1ccc(OCCCCN2CC[C@@]34C=C[C@H](O)C[C@@H]3Oc3c(OC)ccc(c34)C2)cc1` it was 0.0146 µM; in that of `COc1ccc2c3c1O[C@H]1C[C@@H](O)C=C[C@@]31CCN(CCCCOc1ccc(CN3CCOCC3)cc1)C2`, 0.0991 µM; in that of `COc1ccc2c3c1O[C@H]1C[C@@H](O)C=C[C@@]31CCN(CCOc1ccc(CN3CCCCC3)cc1)C2`, 0.0245 µM.

A word on the IC50: it is the concentration that inhibits the measured activity by half.
